Measured values published in patent publication US10781201B2, “Benzimidazole derivative having JNK inhibitory activity and use thereof” (INDUSTRY-UNIVERSITY COOPERATION FOUNDATION HANYANG …, priority 2017, dated 2020).

Key:
[1] = biological target: human JNK3 enzyme (Homo sapiens, UniProt P53779); assay: Measurement of JNK3 enzymatic activity (33P-ATP filter-binding method); format: biochemical; conditions: ATP 10 μM, ATF2 3 μM
Procedure: First, a substrate was added to a prepared base reaction buffer solution (20 mM Hepes (pH 7.5), 10 mM MgCl2, 1 mM EGTA, 0.02% Brij35, 0.02 mg/ml BSA, 0.1 mM Na3VO4, 2 mM DTT, 1% DMSO), a human JNK3 enzyme was added into the prepared substrate solution, and the resulting solution was mixed. ATP (10 μM) and ATF2 (3 μM) were used as substrates, and among them, ATP was used as a common substrate. Next, the compound according to the present invention dissolved in 100% DMSO was added to an enzyme reaction solution, and incubated at room temperature for 20 minutes. Subsequently, ^33P-ATP was added to the mixed reaction solution to initiate the reaction, followed by incubation at room temperature for 2 hours, and enzymatic activity was detected by a filter-binding method. Specifically, 25 al per resulting solution was slowly spotted on P81 paper and placed in a scintillation vial, and then the paper was washed four times with 0.75% phosphoric acid for 10 minutes each and washed once with acetone for 5 minutes. 5 ml of a scintillation cocktail was added to the scintillation vial and signals were read using a scintillation counter.

[2] = system: P-gp (MDR1); assay: Evaluation of migration of blood-brain barrier (BBB migration evaluation system); format: in vitro ADME; conditions: human, Caco-2-MDR1 cells; for Papp A→B: apical to basolateral, read-out: A to B (permeability coefficient Papp); for Papp B→A: basolateral to apical, read-out: B to A (permeability coefficient Papp)
Text: (§1) The blood-brain barrier (BBB) functions as a primary barrier to prevent the invasion of foreign substances, but acts as an obstacle to treatment in pathological circumstances. That is, therapeutics for the treatment of brain diseases or maintaining the condition thereof are very unlikely to permeate the blood-brain barrier, and thus are unable to be effectively used, and accordingly, the selection of drugs for the treatment of brain diseases is limited. […] […] amount of material permeating into mebrain, A: area, and C0: initial concentration of material)

[3] = system: P-gp(MDR1)-overexpressing Caco-2-MDR1 cells; assay: as above; format: in vitro ADME; conditions: class in words
Text: as §1

[4] = system: Alzheimer's disease transgenic mice; assay: Reducing concentration of APP and beta-amyloid oligomer in brain tissue, western blotting; format: in vivo; conditions: IV 15 mg/kg/day three times per 1 week for a total of 2 weeks, compared to non-treated 2×TG(veh)
Text: JNK3 is known to phosphorylate and activate amyloid precursor protein (APP), which is the main cause of Alzheimer's disease, to thus allow the APP to be located in a cell membrane, and promotes the conversion of APP to beta-amyloid, and it has been reported that, even in a case in which, after beta-amyloid is formed, the apoptosis of neurons is induced by toxicity thereof, the activation of JNK3 acts as a main cause. Based on these facts, in the present experimental example, the derivative of the present invention (compound 35d) was administered via intravenous injection (IV) to Alzheimer's disease transgenic mice in a dose of 15 mg/kg/day three times per 1 week for a total of 2 weeks, and then changes in the concentration of APP and beta-amyloid oligomer in the frontal lobe cortex were confirmed through western blotting. Meanwhile, normal mice (WT(veh)) were used as a control, and non-treated Alzheimer's disease transgenic mice (2×TG(veh)) were used as a comparative group.

Chain of human JNK3 enzyme (P53779 whole entry): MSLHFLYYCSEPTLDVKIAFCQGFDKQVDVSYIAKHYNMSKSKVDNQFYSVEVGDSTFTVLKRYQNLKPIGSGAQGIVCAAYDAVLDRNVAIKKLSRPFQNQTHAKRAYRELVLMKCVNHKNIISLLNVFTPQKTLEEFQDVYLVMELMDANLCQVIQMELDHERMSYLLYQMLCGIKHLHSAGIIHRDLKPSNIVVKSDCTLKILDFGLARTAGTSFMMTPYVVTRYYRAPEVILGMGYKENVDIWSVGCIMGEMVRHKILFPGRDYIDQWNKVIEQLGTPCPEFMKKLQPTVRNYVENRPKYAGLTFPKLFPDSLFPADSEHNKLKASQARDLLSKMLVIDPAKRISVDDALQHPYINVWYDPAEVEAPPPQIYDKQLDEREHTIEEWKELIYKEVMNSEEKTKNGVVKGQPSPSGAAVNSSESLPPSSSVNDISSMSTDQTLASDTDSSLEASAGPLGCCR

With `O=C(C1CC1)N1CCC[C@H](Nc2nccc(-n3c(-c4ccc5c(c4)OCCO5)nc4ccc(O)cc43)n2)C1` [Compound 26c, (S)-cyclopropyl(3-((4-(2-(2,3-dihydrobenzo[b][1,4]dioxin-6-yl)-6-hydroxy-1H-benzo[d]imidazole-1-yl)pyrimidin-2-yl)amino)piperidine-1-yl)methanone] the IC50 ([1]; Table 2) was 30 to 100 nM, the efflux ratio [2] was 1.03 and the Papp A→B [2] was 19.2 ×10⁻⁶ cm/s. For the same molecule, the Papp B→A [2] was 19.9 ×10⁻⁶ cm/s and the Permeability [3] was “High”.

`O=C(C1CC1)N1CCC[C@@H](Nc2nccc(-n3c(-c4ccc5c(c4)OCCO5)nc4cc(O)c(O)cc43)n2)C1` [Compound 35d, (R)-cyclopropyl(3-(4-(2-(2,3-dihydrobenzo[b][1,4]dioxin-6-yl)-5,6-dihydroxy-1H-benzo[d]imidazole-1-yl)pyrimidin-2-ylamino)piperidine-1-yl)methanone] was tested, and the IC50 ([1]; Table 3) was less than 30 nM, the “concentration of beta-amyloid oligomer in the frontal lobe cortex” value [4] was “significantly reduced” and the “expression level of APP in the frontal lobe cortex” value [4] was “significantly reduced”. The efflux ratio [2] was 1.13, the Papp A→B [2] was 17.3 ×10⁻⁶ cm/s and the Papp B→A [2] was 19.6 ×10⁻⁶ cm/s. For the same molecule, the Permeability [3] was “High”.

Work on `Oc1ccc2c(c1)nc(-c1ccc(F)c(C(F)(F)F)c1)n2-c1ccnc(NC2CCOCC2)n1` [Compound 9f, 2-(4-fluoro-3-(trifluoromethyl)phenyl)-1-(2-((tetrahydro-2H-pyran-4-yl)amino)pyrimidin-4-yl)-1H-benzo[d]imidazole-5-ol] yielded an IC50 ([1]; Table 1) of 30 to 100 nM.

Molecule `Oc1ccc2nc(-c3ccc4ccccc4c3)n(-c3ccnc(NC4CCOCC4)n3)c2c1` [Compound 22a, 2-(naphthalene-2-yl)-1-(2-((tetrahydro-2H-pyran-4-yl)amino)pyrimidin-4-yl)-1H-benzo[d]imidazole-6-ol] has an IC50 ([1]; Table 2) of 30 to 100 nM.

Molecule `Oc1ccc2nc(-c3ccc4occc4c3)n(-c3ccnc(NC4CCOCC4)n3)c2c1` [Compound 22d, 2-(benzofuran-5-yl)-1-(2-((tetrahydro-2H-pyran-4-yl)amino)pyrimidin-4-yl)-1H-benzo[d]imidazole-6-ol] has an IC50 ([1]; Table 2) of 30 to 100 nM.

With `O=C(C1CC1)N1CCC[C@H](Nc2nccc(-n3c(-c4ccc5ccccc5c4)nc4cc(O)ccc43)n2)C1` [Compound 13a, (S)-cyclopropyl(3-((4-(5-hydroxy-2-(naphthalene-2-yl)-1H-benzo[d]imidazole-1-yl)pyrimidin-2-yl)amino)piperidine-1-yl)methanone] the IC50 ([1]; Table 1) was 30 to 100 nM.

For `O=C(C1CC1)N1CCC[C@H](Nc2nccc(-n3c(-c4ccc(Cl)c(Cl)c4)nc4cc(O)ccc43)n2)C1` [Compound 13e, (S)-cyclopropyl(3-((4-(2-(3,4-dichlorophenyl)-5-hydroxy-1H-benzo[d]imidazole-1-yl)pyrimidin-2-yl)amino)piperidine-1-yl)methanone], the IC50 ([1]; Table 1) was less than 30 nM.
